Test results: patent publication US20230241072A1, “ANTHRACYCLINE DERIVATIVES” (ALMAC DISCOVERY LIMITED, priority 2019, published 2023)

Assays:
[1] = test system: 697; test: Free payload potency in cell lines (96 h): 697; format: cell-based, human; details: 697 (BCL)
Experimental: (§1) The potency of the EDA-PNU159682 derivative (FIG. 1) was tested in a variety of cell lines.

[2] = test system: PC-9; test: Free payload potency in cell lines (96 h): PC-9; format: cell-based; details: PC-9 (Lung)
Experimental: as §1

[3] = test system: PA-1 31-J-06 (Ovarian ROR1 −/−); test: Free payload potency in cell lines (96 h): PA-1 31-J-06; format: cell-based, human
Experimental: as §1

[4] = test system: DU145; test: Free payload potency in cell lines (96 h): DU145; format: cell-based; details: DU145 (Prostate)
Experimental: as §1

[5] = test system: PA-1 32.35 (Ovarian ROR1 −/−); test: Free payload potency in cell lines (96 h): PA-1 32.35; format: cell-based, human
Experimental: as §1

[6] = test system: MDA-468; test: Free payload potency in cell lines (96 h): MDA-468; format: cell-based; details: MDA-468 (Breast)
Experimental: as §1

[7] = test system: NCI-N87; test: Free payload potency in cell lines (96 h): NCI-N87; format: cell-based; details: NCI-N87 (Stomach)
Experimental: as §1

[8] = Mouse plasma half-life of free payloads (parallel study); format: in vitro ADME; details: free payload
Experimental: For both the vc-PAB-DMAE-PNU and vc-PAB-EDA-PNU conjugates liberation of some free payload could be detected as a function of time, with 217 nM PNU159682 and 114 nM of EDA-PNU159682 derivative detected after 120 h respectively. Note, in a parallel study, we calculated the mouse plasma half-lives of the free PNU159682 and EDA-PNU159682 derivatives to be 33 h and 116 h respectively.

[9] = test system: A549; test: Free payload potency in cell lines (96 h): A549; format: cell-based, human; details: A549 (Lung)
Experimental: as §1

[10] = test system: Mino; test: Free payload potency in cell lines (96 h): Mino; format: cell-based; details: Mino (MCL)
Experimental: as §1

[11] = test system: MCF7; details: breast cancer cell line MCF7; cited from earlier work
[12] = test system: A427; test: Free payload potency in cell lines (96 h): A427; format: cell-based; details: A427 (Lung)
Experimental: as §1

[13] = test system: JeKo-1; test: Free payload potency in cell lines (96 h): JeKo-1; format: cell-based; details: JeKo-1 (MCL)
Experimental: as §1

[14] = test system: Panc-1; test: Free payload potency in cell lines (96 h): Panc-1; format: cell-based; details: Panc-1 (Pancreatic)
Experimental: as §1

[15] = test system: A2780; details: ovarian cell line A2780; cited from earlier work
[16] = test system: Hs746T; test: Free payload potency in cell lines (96 h): Hs746T; format: cell-based; details: Hs746T (Stomach)
Experimental: as §1

[17] = test system: MHH-ES1; test: Free payload potency in cell lines (96 h): MHH-ES1; format: cell-based, human; details: MHH-ES1 (Ewings sarcoma)
Experimental: as §1

[18] = test system: Kasumi-2; test: Free payload potency in cell lines (96 h): Kasumi-2; format: cell-based, human; details: Kasumi-2 (BCL)
Experimental: as §1

[19] = test system: ACHN; test: Free payload potency in cell lines (96 h): ACHN; format: cell-based; details: ACHN (Kidney)
Experimental: as §1

[20] = test system: PA-1; test: Free payload potency in cell lines (96 h): PA-1; format: cell-based, human; details: PA-1 (Ovarian)
Experimental: as §1

[21] = test system: MDA-231; test: Free payload potency in cell lines (96 h): MDA-231; format: cell-based; details: MDA-231 (Breast)
Experimental: as §1

`COc1cccc2c1C(=O)c1c(O)c3c(c(O)c1C2=O)C[C@@](O)(C(=O)CO)C[C@@H]3O[C@H]1C[C@H]2[C@H](O[C@@H]3[C@@H](OC)OCCN32)[C@H](C)O1` [PNU159682] gave an IC50 [1] of 8 pM, an IC50 [2] of 47 pM and an IC50 [3] of 2.2 pM. The IC50 [4] was 22 pM, the IC50 [5] was 1.4 pM and the IC50 [6] was 21 pM. It also gave an IC50 [7] of 122 pM, a mouse plasma half-life [8] of 33 h and an IC50 [9] of 13 pM. For the same compound, the IC50 [10] was 37 pM, the “potency for in vitro cell killing” value [11] was “pico- to femtomolar range” and the IC50 [12] was 9.8 pM. The IC50 [13] was 44 pM, the IC50 [14] was 26 pM and the “potency for in vitro cell killing” value [15] was “pico- to femtomolar range”. The IC50 [16] was 49 pM, the IC50 [17] was 3.4 pM and the IC50 [18] was 2.4 pM. The IC50 [19] was 9.7 pM, the IC50 [20] was 4.4 pM and the IC50 [21] was 11 pM.
